Reference: patent publication US8658604B2, “Template-fixed beta-hairpin peptidomimetics with protease inhibitory activity” (Polyphor Ltd, priority 2005, dated 2014)
Where a SMILES comes first, the peptide text is derived from it.

Assays:
[1] = target: Chymotrypsin, from human pancreas (Homo sapiens, UniProt P17538); experiment: Enzymatic assay, chymotrypsin
[2] = target: T1, CathepsinG, from human neutrophils (Homo sapiens, UniProt P08311); experiment: Enzymatic assay, cathepsin G; conditions: for IC50: Cathepsin G IC50
T1 sequence (P08311 21-244): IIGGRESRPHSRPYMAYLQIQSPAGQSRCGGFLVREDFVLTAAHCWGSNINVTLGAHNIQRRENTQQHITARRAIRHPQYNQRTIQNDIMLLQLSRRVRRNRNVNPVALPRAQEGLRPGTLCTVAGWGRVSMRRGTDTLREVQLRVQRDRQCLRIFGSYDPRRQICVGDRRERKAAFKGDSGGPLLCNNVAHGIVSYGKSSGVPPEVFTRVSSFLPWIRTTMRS

[3] = target: Trypsin, from human pancreas (Homo sapiens, UniProt P07477); experiment: Enzymatic assay, trypsin; conditions: at 100 μM
[4] = target: Coagulation Factor Xa, from uman plasma (Homo sapiens, UniProt P00742); experiment: Enzymatic assay, coagulation factor Xa
[5] = test system: Tryptase, from human lung; experiment: Enzymatic assay, tryptase; conditions: at 100 μM
[6] = target: Urokinase from human urine (Homo sapiens, UniProt P00749); experiment: Enzymatic assay, urokinase
[7] = target: Thrombin, from Human Plasma (Homo sapiens, UniProt P00734); experiment: Enzymatic assay, thrombin
Chymase, from human skin = target: T2, Chymase, from human skin (Homo sapiens, UniProt P23946); experiment: Enzymatic assay, chymase
T2 sequence (P23946 22-247): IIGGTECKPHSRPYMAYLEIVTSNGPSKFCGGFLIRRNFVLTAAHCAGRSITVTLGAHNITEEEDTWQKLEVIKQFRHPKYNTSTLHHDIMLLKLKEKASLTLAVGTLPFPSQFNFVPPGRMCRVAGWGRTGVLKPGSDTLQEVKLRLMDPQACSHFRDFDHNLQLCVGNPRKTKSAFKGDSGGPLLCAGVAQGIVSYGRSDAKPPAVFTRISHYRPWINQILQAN

[8] = target: T3, Elastase from human neutrophils (Homo sapiens, UniProt P08246); experiment: Enzymatic assay, elastase; conditions: Elastase IC50
T3 sequence (P08246 30-267): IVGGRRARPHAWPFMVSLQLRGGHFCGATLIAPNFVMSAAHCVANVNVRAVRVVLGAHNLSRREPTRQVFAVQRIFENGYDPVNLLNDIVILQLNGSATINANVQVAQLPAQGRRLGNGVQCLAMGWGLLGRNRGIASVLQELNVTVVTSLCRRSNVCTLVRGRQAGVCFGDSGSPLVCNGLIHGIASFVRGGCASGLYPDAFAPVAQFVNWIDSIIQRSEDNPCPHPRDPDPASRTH

Chymotrypsin, from human pancreas, sequence (P17538 19-263): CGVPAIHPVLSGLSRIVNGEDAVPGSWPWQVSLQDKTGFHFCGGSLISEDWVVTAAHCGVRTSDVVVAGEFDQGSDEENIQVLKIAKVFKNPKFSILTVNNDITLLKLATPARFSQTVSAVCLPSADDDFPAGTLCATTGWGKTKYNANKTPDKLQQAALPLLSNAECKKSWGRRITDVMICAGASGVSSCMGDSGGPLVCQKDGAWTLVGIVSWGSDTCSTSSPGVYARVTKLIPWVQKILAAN
Coagulation Factor Xa, from uman plasma, sequence (P00742 235-488 limits assumed): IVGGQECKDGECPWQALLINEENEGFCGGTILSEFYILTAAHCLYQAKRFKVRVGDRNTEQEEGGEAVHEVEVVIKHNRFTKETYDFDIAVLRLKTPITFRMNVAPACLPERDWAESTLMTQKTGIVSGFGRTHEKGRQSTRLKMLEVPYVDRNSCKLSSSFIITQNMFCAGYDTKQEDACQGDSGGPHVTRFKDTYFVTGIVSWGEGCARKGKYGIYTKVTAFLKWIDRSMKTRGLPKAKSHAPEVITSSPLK
Coagulation Factor Xa, from uman plasma, sequence (P00742 41-179 limits assumed): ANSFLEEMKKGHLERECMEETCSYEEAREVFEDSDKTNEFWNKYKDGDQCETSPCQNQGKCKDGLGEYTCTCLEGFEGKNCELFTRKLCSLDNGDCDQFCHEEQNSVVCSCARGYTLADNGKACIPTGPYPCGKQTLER

Structure (SMILES)	Chymotrypsin at 100 μM % [1]	Cathepsin G at 100 μM % ([2]; at 100 μM)	Trypsin at 100 μM % [3]	FXa at 100 μM % [4]	Tryptase At 100 μM % [5]	Urokinase at 100 μM % [6]	Thrombin at 100 μM % [7]	Chymase at 100 μM % (Chymase, from human skin)	IC50 [8]	Cathepsin G at 100 μM % ([2]; at 100 μM (stated in cell instead of IC50))	Tryptase at 100 μM % [5]	IC50 [2]	IC50 [1]
CCCC[C@@H]1NC(=O)[C@H](CCC(N)=O)NC(=O)[C@@H](CCC(N)=O)NC(=O)[C@H](CCC(N)=O)NC(=O)[C@@H]2CSSC[C@H](NC1=O)C(=O)N[C@@H]([C@@H](C)O)C(=O)N[C@@H](C)C(=O)N[C@@H](CO)C(=O)N[C@@H](CC1CCCCC1)C(=O)N1CCC[C@H]1C(=O)N1CC(NC(=O)c3ccccc3)C[C@H]1C(=O)N[C@@H](CCC(N)=O)C(=O)N2 (some centres unmarked) [compound 176] (HELM PEPTIDE1{[Nle].C.T.A.S.[Cha].P.[O=C(NC1C[C@@H](C(=O)[*:2])N([*:1])C1)c1ccccc1].Q.C.Q.[dQ].Q}$PEPTIDE1,PEPTIDE1,2:R3-10:R3|PEPTIDE1,PEPTIDE1,1:R1-13:R2$$$V2.0)	55%	69 at 100%	7%	1%	17%	8%	15%	2%	–	–	–	–	–
CCCC[C@@H]1NC(=O)[C@@H]2CCCN2C(=O)[C@H]2CCCN2C(=O)[C@H](Cc2ccc(O)cc2)NC(=O)[C@H](CCCCN)NC(=O)[C@H](CCC(N)=O)NC(=O)[C@@H]2CCCN2C(=O)[C@@H]2CCCN2C(=O)[C@H]([C@@H](C)CC)NC(=O)[C@H](CO)NC(=O)[C@H](C)NC(=O)[C@H]([C@@H](C)O)NC(=O)[C@H](CCC(=O)O)NC1=O [Ex. 104] (HELM PEPTIDE1{[Nle].E.T.A.S.I.P.P.Q.K.Y.[dP].P}$PEPTIDE1,PEPTIDE1,1:R1-13:R2$$$V2.0)	3.1 at 100 μM %	–	0%	6.2%	–	0%	7.7%	0%	34 nM	53.5 at 100%	0%	–	–
CCCCCCCC[C@@H]1NC(=O)[C@@H]2CCCN2C(=O)[C@H]2CCCN2C(=O)[C@H](CCC(N)=O)NC(=O)[C@@H]2CSSC[C@H](NC1=O)C(=O)N[C@@H]([C@@H](C)O)C(=O)N[C@@H](C)C(=O)N[C@@H](CO)C(=O)N[C@@H](CC1CCCCC1)C(=O)N1CCC[C@H]1C(=O)N1CC(NC(=O)c3ccccc3)C[C@H]1C(=O)N[C@@H](CCC(N)=O)C(=O)N2 (some centres unmarked) [Ex. 160] (HELM PEPTIDE1{[CCCCCCCC[C@H](N[*:1])C(=O)[*:2]].C.T.A.S.[Cha].P.[O=C(NC1C[C@@H](C(=O)[*:2])N([*:1])C1)c1ccccc1].Q.C.Q.[dP].P}$PEPTIDE1,PEPTIDE1,2:R3-10:R3|PEPTIDE1,PEPTIDE1,1:R1-13:R2$$$V2.0)	94%	55 at 100%	3%	1%	30%	14%	23%	2%	–	–	–	–	–
CCCCCCCC[C@@H]1NC(=O)[C@@H]2CCCN2C(=O)[C@H]2CCCN2C(=O)[C@H](CCC(N)=O)NC(=O)[C@@H]2CSSC[C@H](NC1=O)C(=O)N[C@@H]([C@@H](C)O)C(=O)N[C@@H](C)C(=O)N[C@@H](CO)C(=O)N[C@@H](CCCCCCCC)C(=O)N1CCC[C@H]1C(=O)N1CCC[C@H]1C(=O)N[C@@H](CCC(N)=O)C(=O)N2 [Ex. 148] (HELM PEPTIDE1{[CCCCCCCC[C@H](N[*:1])C(=O)[*:2]].C.T.A.S.[CCCCCCCC[C@H](N[*:1])C(=O)[*:2]].P.P.Q.C.Q.[dP].P}$PEPTIDE1,PEPTIDE1,2:R3-10:R3|PEPTIDE1,PEPTIDE1,1:R1-13:R2$$$V2.0)	91%	52 at 100%	9%	8%	30%	12%	32%	7%	11 nM	–	–	–	–
C[C@@H]1NC(=O)[C@H]([C@@H](C)O)NC(=O)[C@@H]2CSSC[C@H](NC(=O)[C@H](CCC(N)=O)NC(=O)[C@@H]3CCCN3C(=O)[C@@H]3CCCN3C(=O)[C@H](CC3CCCCC3)NC(=O)[C@H](CO)NC1=O)C(=O)N[C@@H](Cc1ccccc1)C(=O)N1CCC[C@@H]1C(=O)N1CCC[C@H]1C(=O)N[C@@H](CCc1ccccc1)C(=O)N2 [Ex. 155] (HELM PEPTIDE1{[O=C([C@H](CCc1ccccc1)N[*:1])[*:2]].C.T.A.S.[Cha].P.P.Q.C.F.[dP].P}$PEPTIDE1,PEPTIDE1,2:R3-10:R3|PEPTIDE1,PEPTIDE1,1:R1-13:R2$$$V2.0)	83%	52 at 100%	18%	9%	30%	12%	19%	3%	8.2 nM	–	–	–	–
CCCCCCCC[C@@H]1NC(=O)[C@H](CCC(N)=O)NC(=O)[C@H]2CCCN2C(=O)[C@H](Cc2ccc(O)cc2)NC(=O)[C@@H]2CSSC[C@H](NC1=O)C(=O)N[C@@H]([C@@H](C)O)C(=O)N[C@@H](C)C(=O)N[C@@H](CO)C(=O)N[C@@H]([C@@H](C)CC)C(=O)N1CCC[C@H]1C(=O)N1CCC[C@H]1C(=O)N[C@@H](CCC(N)=O)C(=O)N2 [compound 177] (HELM PEPTIDE1{[CCCCCCCC[C@H](N[*:1])C(=O)[*:2]].C.T.A.S.I.P.P.Q.C.Y.[dP].Q}$PEPTIDE1,PEPTIDE1,2:R3-10:R3|PEPTIDE1,PEPTIDE1,1:R1-13:R2$$$V2.0)	86%	54 at 100%	5%	7%	15%	12%	17%	3%	7 nM	–	–	–	–
CC[C@H](C)[C@@H]1NC(=O)[C@@H]2CCCN2C(=O)[C@@H]2CCCN2C(=O)[C@H](CC(=O)O)NC(=O)[C@H](CO)NC(=O)[C@H](CCCCN)NC(=O)[C@H]([C@@H](C)O)NC(=O)[C@@H]2CSSC[C@H](NC1=O)C(=O)N[C@@H](Cc1ccc(O)cc1)C(=O)N1CCC[C@@H]1C(=O)N1CCC[C@H]1C(=O)N[C@@H](CCc1ccccc1)C(=O)N2 [Ex. 30] (HELM PEPTIDE1{[O=C([C@H](CCc1ccccc1)N[*:1])[*:2]].C.T.K.S.D.P.P.I.C.Y.[dP].P}$PEPTIDE1,PEPTIDE1,2:R3-10:R3|PEPTIDE1,PEPTIDE1,1:R1-13:R2$$$V2.0)	49%	–	98%	3%	–	9%	2%	0%	49900 nM	–	–	39 nM	–
CCCC[C@@H]1NC(=O)[C@H](CCC(N)=O)NC(=O)[C@H]2CCCN2C(=O)[C@H](Cc2ccc(O)cc2)NC(=O)[C@@H]2CSSC[C@H](NC1=O)C(=O)N[C@@H]([C@@H](C)O)C(=O)N[C@@H](C)C(=O)N[C@@H](CO)C(=O)N[C@@H]([C@@H](C)CC)C(=O)N1CCC[C@H]1C(=O)N1CCC[C@H]1C(=O)N[C@@H](CCC(N)=O)C(=O)N2 [Ex. 123] (HELM PEPTIDE1{[Nle].C.T.A.S.I.P.P.Q.C.Y.[dP].Q}$PEPTIDE1,PEPTIDE1,2:R3-10:R3|PEPTIDE1,PEPTIDE1,1:R1-13:R2$$$V2.0)	–	–	7.9%	0%	–	7.6%	2.7%	0%	14 nM	–	–	35200 nM	15000 nM
